Measured values taken from the supplement of paper PMC10307832.

Experiments:
Assay in all cases: relative viability (nuclei count vs DMSO), 5 days (fraction); higher = more cells survive
[1] = compound: CC1=C(C(=O)N2C=CSC2=N1)CCN3CCC(=C(C4=CC=CC=C4)C5=CC=C(C=C5)F)CC3 + COc1cccc2cc(-c3nc([C@H]4CC[C@H](C(=O)O)CC4)n4ncnc(N)c34)[nH]c12 [OSI-027] (partner 0.5 µM)
Procedure, shortened: (§1)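 After 5 days of treatment, lung cancer cells in 1536-well plates were fixed and stained in a single step (final 0.05% Triton X-100, 1% formaldehyde, 1 ug/ml Hoechst) and their nuclei counted on 4× images. Treatment had been applied by pin tool the day after seeding as one drug alone or as a fixed anchor-drug dose with five library-drug doses (not always all listed) in √10 steps. Relative viability is the nuclei count of treated wells divided by that of vehicle wells, and values are medians of duplicate plates.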

[2] = compound: CC1=C(C(=O)N2C=CSC2=N1)CCN3CCC(=C(C4=CC=CC=C4)C5=CC=C(C=C5)F)CC3 + C[C@]1(O)C[C@@H](c2nc(-c3ccc4ccc(-c5ccccc5)nc4c3)c3c(N)nccn32)C1 [Linsitinib] (partner 1 µM)
Procedure, shortened: as §1

[3] = compound: CC1=C(C(=O)N2C=CSC2=N1)CCN3CCC(=C(C4=CC=CC=C4)C5=CC=C(C=C5)F)CC3 + C[C@@H](Oc1cc(-c2cnn(C3CCNCC3)c2)cnc1N)c1c(Cl)ccc(F)c1Cl [Crizotinib] (partner 1 µM)
Procedure, shortened: as §1

[4] = compound: CC1=C(C(=O)N2C=CSC2=N1)CCN3CCC(=C(C4=CC=CC=C4)C5=CC=C(C=C5)F)CC3 + Cc1cc(Nc2cc(N3CCN(C)CC3)nc(Sc3ccc(NC(=O)C4CC4)cc3)n2)n[nH]1 [Tozasertib] (partner 0.1 µM)
Procedure, shortened: as §1

Cell Line | relative viability ([1]; first compound 0.08 µM) | relative viability ([1]; first compound 0.253 µM) | relative viability ([1]; first compound 0.8 µM) | relative viability ([1]; first compound 2.53 µM) | relative viability ([1]; first compound 8 µM) | relative viability ([2]; first compound 0.08 µM) | relative viability ([2]; first compound 0.253 µM) | relative viability ([2]; first compound 0.8 µM) | relative viability ([2]; first compound 2.53 µM) | relative viability ([2]; first compound 8 µM) | relative viability ([3]; first compound 0.08 µM) | relative viability ([3]; first compound 0.253 µM) | relative viability ([3]; first compound 0.8 µM) | relative viability ([3]; first compound 2.53 µM) | relative viability ([3]; first compound 8 µM) | relative viability ([4]; first compound 0.08 µM) | relative viability ([4]; first compound 0.253 µM) | relative viability ([4]; first compound 0.8 µM) | relative viability ([4]; first compound 2.53 µM) | relative viability ([4]; first compound 8 µM)
HCC-78 | 0.352 | 0.349 | 0.406 | 0.356 | 0.326 | 0.547 | 0.499 | 0.518 | 0.54 | 0.443 | 0.283 | 0.335 | 0.34 | 0.319 | 0.326 | 0.402 | 0.468 | 0.451 | 0.345 | 0.303
LCLC-97TM1 | 0.585 | 0.585 | 0.507 | 0.487 | 0.369 | 0.185 | 0.161 | 0.19 | 0.197 | 0.164 | 0.453 | 0.367 | 0.307 | 0.263 | 0.343 | 0.266 | 0.166 | 0.193 | 0.237 | 0.182
NCI-H2126 | 0.719 | 0.753 | 0.699 | 0.779 | 0.792 | 0.712 | 0.729 | 0.801 | 0.797 | 0.716 | 1.08 | 1.03 | 1.09 | 1.02 | 0.992 | 0.889 | 0.913 | 0.846 | 0.986 | 0.739
NCI-H358 | 0.681 | 0.666 | 0.666 | 1.13 | 0.469 | 0.819 | 0.74 | 0.779 | 0.874 | 0.561 | 0.455 | 0.327 | 0.413 | 0.548 | 0.609 | 0.0851 | 0.0942 | 0.0998 | 0.129 | 0.112
NCI-H1734 | 0.549 | 0.571 | 0.564 | 0.576 | 0.416 | 0.766 | 0.825 | 0.948 | 1.1 | 0.429 | 0.661 | 0.653 | 0.625 | 0.672 | 0.467 | 0.253 | 0.237 | 0.266 | 0.27 | 0.234
EKVX | 0.46 | 0.708 | 0.777 | 0.744 | 0.545 | 0.999 | 1.05 | 1.09 | 0.951 | 0.839 | 0.863 | 1.15 | 1.01 | 0.894 | 0.703 | 0.385 | 0.444 | 0.35 | 0.334 | 0.359
NCI-H2085 | 0.818 | 0.704 | 0.87 | 0.799 | 0.464 | 1.1 | 0.92 | 1.02 | 1.06 | 0.7 | 0.692 | 0.986 | 0.921 | 0.861 | 0.649 | 0.896 | 0.735 | 0.747 | 0.844 | 0.702
NCI-H1437 | 0.978 | 0.879 | 0.836 | 1.08 | 0.631 | – | 1.07 | 1.14 | 1.14 | 0.622 | – | 0.902 | 0.978 | 1.03 | 0.604 | 0.399 | 0.35 | 0.433 | 0.43 | 0.36
